# Test results reported in paper PMC7663616, “(5-Hydroxy-4-oxo-2-styryl-4H-pyridin-1-yl)-acetic Acid Derivatives as Multifunctional Aldose Reductase Inhibitors” (Molecules, 2020).
# Where “and” joins values, the source holds several entries; their conditions need not be identical. Equal entries are not always repeated. Where two headings read alike, the source gives them in different places.
# Legend:
# [1] = target: T1, human recombinant ALR1 (Homo sapiens, UniProt P14550); assay: ALR1 enzyme inhibition assay (NADPH oxidation, sodium D-gluconate substrate); assay type: biochemical; conditions: for inhibition at 100 µM: read-out: ALR1 Inh. %; for SI: selectivity index, defined as IC50[ALR1]: IC50[ALR2]
# T1 sequence (P14550 1-325): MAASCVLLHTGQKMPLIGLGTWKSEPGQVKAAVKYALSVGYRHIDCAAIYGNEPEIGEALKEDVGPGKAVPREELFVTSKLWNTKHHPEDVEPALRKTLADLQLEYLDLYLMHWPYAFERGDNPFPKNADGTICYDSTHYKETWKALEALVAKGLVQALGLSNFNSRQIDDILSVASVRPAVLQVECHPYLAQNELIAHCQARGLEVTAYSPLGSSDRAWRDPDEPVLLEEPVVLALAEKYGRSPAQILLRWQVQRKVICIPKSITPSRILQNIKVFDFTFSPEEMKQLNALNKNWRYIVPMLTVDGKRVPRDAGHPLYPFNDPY
# Description: (§1) All the title compounds were tested for their inhibitory activity against human recombinant ALR2.
# The ALR2 inhibition activity was evaluated in a mixture of reaction with 50 μL NADPH (0.1 mM), 50 μL sodium phosphate buffer (pH = 6.2, 100 mM), 50 μL human recombinant ALR2, 1 μL dimethyl sulfoxide (DMSO) as solvent, and 50 μL D,L-glyceraldehyde (10 mM) which served as a substrate. […] Before the substrate was added, the mixture was incubated at 30 °C for 3 min, then the reaction was started when the substrate was added, and was monitored for 4 min. The ALR1 inhibition activity experiment was conducted at 37 °C in the mixture containing 50 μL NADPH (0.12 mM), 50 μL human recombinant ALR1, 50 μL sodium phosphate buffer (pH = 7.2, 100 mM), 50 μL sodium […] (20 mM) as a substrate, and 1 μL DMSO as solvent. Before the substrate sodium […] was added, the mixture was incubated at 37 °C for 3 min, then the substrate was added to start the reaction, which was monitored for 4 min.
# (§2) The inhibitory activities of the title synthetic compounds against ALR2 and ALR1 were examined by adding 1 μL of the inhibitor solution to the ALR2 or ALR1 mixtures. All compounds were dissolved in DMSO, and the solutions were diluted with DMSO to desirable concentrations. To correct for the nonenzymatic oxidation of NADPH, the rate of NADPH oxidation in the presence of all of the reaction mixture components except the substrate was subtracted from each experimental rate. The title compounds were tested at concentrations ranging from 100 μM to 1 μM, except compound 7l which were tested 10 μM to 0.1 μM. […] The inhibitory rates of tested compounds were calculated by equation as follows:Inhibitory rate (%) = (1 − ∆Asample/∆AE+DMSO) × 100%(1) sample = enzyme + compound + DMSO(2) E + DMSO = enzyme + DMSO(3)
# (§3) The experiments were performed in triplicate.
# [2] = target: human recombinant ALR2 (Homo sapiens, UniProt P15121); assay: ALR2 enzyme inhibition assay (NADPH oxidation, D,L-glyceraldehyde substrate); assay type: biochemical
# Description: as §1
# The ALR2 inhibition activity was evaluated in a mixture of reaction with 50 μL NADPH (0.1 mM), 50 μL sodium phosphate buffer (pH = 6.2, 100 mM), 50 μL human recombinant ALR2, 1 μL dimethyl sulfoxide (DMSO) as solvent, and 50 μL D,L-glyceraldehyde (10 mM) which served as a substrate. […] Before the substrate was added, the mixture was incubated at 30 °C for 3 min, then the reaction was started when the substrate was added, and was monitored for 4 min.
# as §2, with “rate.” for “rate. The title compounds were tested at concentrations ranging from 100 μM to 1 μM, except compound 7l which were tested 10 μM to 0.1 μM.”
# as §3
# [3] = DPPH radical scavenging assay; conditions: n = 3
# Description: In this part, the antioxidant activity was measured by an intrinsic chemical reactivity toward radicals, in a homogeneous reaction system of the methanol solution of 1,1-diphenyl-2-trinitrophenylhydrazine (DPPH) (0.2 mM), and 6-hydroxy-2,5,7,8-tetramethyl- chroman-2-carboxylic acid (Trolox) served as a reference compound.
# (§4) Antioxidant assays were performed with the similar protocol as described previously.
# [4] = tested on: lipid peroxidation in rat brain homogenate; assay: Lipid peroxidation suppression (TBARS/MDA) in rat brain homogenate induced by Fe(III)/ascorbic acid; assay type: biochemical; conditions: tested in concentration of 100 μM, n = 3
# Source text: Lipid peroxidation reactions involve free radical attacks on unsaturated fatty acid, producing free radicals and lipid peroxides which eventually harm the organism and usually decompose to form poisonous malonaldehyde (MDA). Thiobarbituric acid reactive substances (TBARS), which generated from the condensation of thiobarbituric acid and malondialdehyde, are considered as key biomarkers to determine the level of lipid peroxidation. For further identification that the derivatives tested in DPPH scavenging assay can be effective in heterogeneous oxidative pathway, the suppression effect of compounds on the hydroxyl radical-dependent lipoperoxidation in rat brain homogenate oxidant system which induced by Fe(III)/ascorbic acid was also evaluated.
# Compounds 7a, 7c, 7g and 7k–l that were already described in the DPPH radical scavenging activity were investigated in the suppression of lipid peroxidation (Table 3).
# as §4
# [5] = tested on: lipid peroxidation in rat brain homogenate; design: method as in Chaves S. et al. [37]; conditions: ref Chaves S. et al. [37]; cited from earlier work
# [6] = design: method as in Lewis F. W. et al [36]; conditions: 100 μM column; ref Lewis F. W. et al [36]; cited from earlier work
# [7] = tested in concentration of 100 μM, n = 3
# [8] = n = 3, mean ± SD, read-out: IC50 for ALR2
# [9] = raw data, average of three replicates, unit not given (molar scale), read-out: IC50 average (ALR2)
# [10] = raw data, single replicate, unit not given (molar scale by log(dose)), read-out: IC50 (ALR2)
Structure (SMILES),IC50 ([1]; n = 3) [µM],"inhibition at 100 µM [1, 7] [%]","IC50 [2, 8] [µM]","IC50 [2, 9] [µM]","IC50 [2, 10]",% of Inhibition of Control Value (DPPH) ([3]; 100 μM) [%],MDA inh. % [4] [%],other results
"O=C(O)Cn1cc(O)c(=O)cc1C=Cc1ccccc1 [7a, (5-Hydroxy-4-oxo-2-styryl-4H-pyridin-1-yl)-acetic acid]",> 100,38.8 ± 1.75,8.41 ± 0.63,8.41,7.85 µM and 8.09 µM and 9.28 µM,22.90 ± 3.30,19.28 ± 0.98,melting point: 254 to 255 °C
"CC(C)(C)c1ccc(C=Cc2cc(=O)c(O)cn2CC(=O)O)cc1 [7c, {2-[2-(4-tert-Butyl-phenyl)-vinyl]-5-hydroxy-4-oxo-4H-pyridin-1-yl}-acetic acid]",> 100,49.41 ± 0.45,2.98 ± 0.73,2.98,2.06 µM and 3.03 µM and 3.84 µM,25.44 ± 2.36,26.10 ± 1.06,–
"O=C(O)Cn1cc(O)c(=O)cc1C=Cc1ccc(F)cc1 [7f, {2-[2-(4-Fluoro-phenyl)-vinyl]-5-hydroxy-4-oxo-4H-pyridin-1-yl}-acetic acid]",–,–,6.64 ± 2.39,6.64,4.52 µM and 9.99 µM and 5.42 µM,–,–,–
"CS(=O)(=O)c1ccc(C=Cc2cc(=O)c(O)cn2CC(=O)O)cc1 [7i, {5-Hydroxy-2-[2-(4-methanesulfonyl-phenyl)-vinyl]-4-oxo-4H-pyridin-1-yl}-acetic acid]",–,–,17.1 ± 2.3,17.1,16.1 µM and 20.3 µM and 15 µM,–,–,–
"Cc1c(O)c(=O)ccn1C [Deferiprone, 3-hydroxy-1,2-dimethyl-1H-pyridin-4-one]",–,–,–,–,–,–,–,MDA inh. % [5]: 25%; % of Inhibition of Control Value (DPPH) [6]: 63%
"Cc1c(C)c2c(c(C)c1O)CCC(C)(C(=O)O)O2 (stereo not drawn) [Trolox, 6-hydroxy-2,5,7,8-tetramethyl-chroman-2-carboxylic acid, reference compound]",–,–,–,–,–,92.32 ± 0.19,74.82 ± 1.82,% of Inhibition of Control Value (DPPH) ([3]; 1 μM): 11.89 ± 1.39%; % of Inhibition of Control Value (DPPH) ([3]; 5 μM): 45.53 ± 1.12%; % of Inhibition of Control Value (DPPH) ([3]; 10 μM): 80.33 ± 1.22%
"CC(/C=C1\SC(=S)N(CC(=O)O)C1=O)=C\c1ccccc1 [epalrestat, reference compound]",3.56 ± 0.18,–,–,–,–,–,–,inhibition at 100 µM [1]: 80.8 ± 3.74%

# Continued by falling IC50 [2, 8], values first:
IC50 ([1]; n = 3) [µM],"inhibition at 100 µM [1, 7] [%]","IC50 [2, 8] [µM]","IC50 [2, 9] [µM]","IC50 [2, 10]",Structure (SMILES),% of Inhibition of Control Value (DPPH) ([3]; 100 μM) [%],MDA inh. % [4] [%],other results
–,–,10.7 ± 1.47,10.7,8.88 µM and 10.8 µM and 12.5 µM,"O=C(O)Cn1cc(O)c(=O)cc1C=Cc1ccc(C(F)(F)F)cc1 [7h, {5-Hydroxy-4-oxo-2-[2-(4-trifluoromethyl-phenyl)-vinyl]-4H-pyridin-1-yl}-acetic acid]",–,–,–
–,–,9.56 ± 0.98,9.56,9.61 µM and 8.33 µM and 10.7 µM,"COc1ccc(C=Cc2cc(=O)c(O)cn2CC(=O)O)cc1OC [7e, {2-[2-(3,4-Dimethoxy-phenyl)-vinyl]-5-hydroxy-4-oxo-4H-pyridin-1-yl}-acetic acid]",–,–,–
–,–,8.19 ± 0.43,8.19,8.07 µM and 7.74 µM and 8.76 µM,"Nc1ccc(C=Cc2cc(=O)c(O)cn2CC(=O)O)cc1 [7j, {2-[2-(4-Amino-phenyl)-vinyl]-5-hydroxy-4-oxo-4H-pyridin-1-yl}-acetic acid]",–,–,–
–,–,6.78 ± 0.91,6.78,5.7 µM and 7.92 µM and 6.7 µM,"COc1ccc(C=Cc2cc(=O)c(O)cn2CC(=O)O)cc1 [7d, {5-Hydroxy-2-[2-(4-methoxy-phenyl)-vinyl]-4-oxo-4H-pyridin-1-yl}-acetic acid]",–,–,"I% (ALR2 inhibitory rate) ([2]; raw data, single replicate, log(dose) -5): 54.7%"
–,–,5.3 ± 0.6,5.3,4.48 µM and 5.49 µM and 5.91 µM,"Cc1ccc(C=Cc2cc(=O)c(O)cn2CC(=O)O)cc1 [7b, [5-Hydroxy-4-oxo-2-(2-p-tolyl-vinyl)-4H-pyridin-1-yl]-acetic acid]",–,–,melting point: 256 to 257 °C
15 ± 0.54,75.8 ± 2.34,2.36 ± 0.42,–,2.63 µM and 1.86 µM and 2.86 µM,"O=C(O)Cn1cc(O)c(=O)cc1C=Cc1ccc(O)cc1 [7k, {5-Hydroxy-2-[2-(4-hydroxy-phenyl)-vinyl]-4-oxo-4H-pyridin-1-yl}-acetic acid]",96.69 ± 0.72,90.73 ± 3.97,SI [1]: 6.36; % of Inhibition of Control Value (DPPH) ([3]; 1 μM): 33.08 ± 0.72%; % of Inhibition of Control Value (DPPH) ([3]; 5 μM): 72.01 ± 1.80%; % of Inhibition of Control Value (DPPH) ([3]; 10 μM): 89.31 ± 0.62%
> 100,35.8 ± 3.23,2.11 ± 0.34,2.11,2.52 µM and 2.11 µM and 1.7 µM,"O=C(O)Cn1cc(O)c(=O)cc1C=Cc1ccc(F)c(F)c1 [7g, {2-[2-(3,4-Difluoro-phenyl)-vinyl]-5-hydroxy-4-oxo-4H-pyridin-1-yl}-acetic acid]",28.50 ± 0.95,55.02 ± 3.00,–
19.9 ± 1.72,80 ± 3.59,0.789 ± 0.183,0.789,0.916 µM and 0.921 µM and 0.53 µM,"O=C(O)Cn1cc(O)c(=O)cc1C=Cc1ccc(O)c(O)c1 [7l, {2-[2-(3,4-Dihydroxy-phenyl)-vinyl]-5-hydroxy-4-oxo-4H-pyridin-1-yl}-acetic acid]",97.96 ± 0.36,88.76 ± 2.04,SI [1]: 25.23; % of Inhibition of Control Value (DPPH) ([3]; 1 μM): 41.48 ± 0.95%; % of Inhibition of Control Value (DPPH) ([3]; 5 μM): 67.18 ± 0.62%; % of Inhibition of Control Value (DPPH) ([3]; 10 μM): 82.44 ± 1.65%
